Experimental data taken from patent US10647673B2, “Acetophenone compound, preparation method thereof, and application thereof in fatty liver prevention and treatment” (Nanjing Bioenergy Medicine Science & Technology Co., Ltd., priority 2017, dated 2020).

Tests used:
Type in all cases: in vivo
[1] = test system: Fatty Liver Diseases of SD Rats; test: Liver functions of lipid-emulsion SD rats after administration for 4 weeks; set-up: unit not given here; settings: compounds 80 mg/kg, Obeticholic Acid 10 mg/kg
[2] = test system: fatty liver of the SD rats; test: Pathological sections and grading of fatty liver of SD rats; settings: compounds 80 mg/kg, Sim 10 mg/kg, OCA 10 mg/kg
Experimental: (§1) 500 g of lard oil was taken, placed in a container, and heated to melt. When the temperature rose to 100° C., it was added with 200 g of cholesterol to dissolve completely, and then further added with 20 g of propylthiouracil. The resulted mixture was stirred well, and added with 500 ml of Tween 80 after dissolution, resulting in an oil phase. At the same time, 600 mL of distilled water and 400 mL of 1,2-propanediol were taken and heated to 60° C. in a water bath, then were added with 40 g of sodium deoxycholate. The resulted mixture was stirred well until realizing complete dissolution, so as to give an aqueous phase. The aqueous phase was added into the oil phase and mixed well to give a lipid emulsion. The lipid emulsion was heated in a water bath of 37° C. before intragastric administration to animals.
(§2) An appropriate amount of pharmaceutical was weighed, added with 0.5% CMC-Na, and mixed homogeneously by grinding. There are groups for Compound 01 (80 mg/kg), Compound 02 (80 mg/kg), Compound 03 (80 mg/kg), Compound 04 (80 mg/kg), Compound 05 (80 mg/kg), Compound 06 (80 mg)/kg), Compound 07 (80 mg/kg), Compound 08 (80 mg/kg), Compound 09 (80 mg/kg), Compound 10 (80 mg/kg), Compound 11 (80 mg/kg), Compound 12 (80 mg/kg), Compound 13 (80 mg/kg), Compound 14 (80 mg/kg), Compound 15 (80 mg/kg), Compound 16 (80 mg/kg), Compound 17 (80 mg/kg), Compound 18 (80 mg/kg), Compound 19 (80 mg/kg), Compound 20 (80 mg/kg), Compound 21 (80 mg/kg), and Compound 22 (80 mg/kg).
(§3) Male SD rats weighing 180-200 g were fed adaptively for 7 days. Based on body weight, 10 animals were used as control and the remaining animals were intragastrically administered with the lipid emulsion every day, 1 ml/100 g body weight for 14 days. After fasting for 12 hours, 1 mL of blood was collected from the orbits of the animals, and was determined by Hitachi Automatic Biochemical Analyzer 7080 for serum cholesterol (CHO), triglyceride (TG), low density lipoprotein (LDL-C) and high density lipoprotein (HDL-C).
(§4) The modeled rats were continued with the intragastric administration of the lipid emulsion. At the same time, the pharmaceutical-administered groups were administrated with a corresponding dose of pharmaceuticals, while the Model group was administrated with an equal volume of solvent. The pharmaceutical-administered groups were administrated with the lipid emulsion in the morning, and with the pharmaceuticals in the afternoon. The animals were measured for the body weight once a week, and were observed. After 14 days of continuous administration, 1 mL of blood was collected from the orbits, and was determined for the contents of triglyceride, cholesterol, low density lipoprotein and high density lipoprotein in blood serum.

[3] = test system: Fatty Liver Diseases of SD Rats; test: Blood serum lipids in SD rats given lipid emulsion (fatty liver model); set-up: unit not given here; settings: blood serum after 14 days of continuous administration; compounds 80 mg/kg, Obeticholic Acid 10 mg/kg, intragastric; lipid emulsion continued
Experimental: as §1, §2, §3, §4

Structure (SMILES)	ALP [1]	ALT [1]	AST [1]	TBIL [1]	Pathological grading: Infiltration of inflammatory cells ([2]; animal 1)	Pathological grading: Steatotic hepatocytes ([2]; animal 1)	Pathological grading: Infiltration of inflammatory cells ([2]; animal 3)	Pathological grading: Steatotic hepatocytes ([2]; animal 3)	Pathological grading: Steatotic hepatocytes ([2]; animal 4)	Pathological grading: Infiltration of inflammatory cells ([2]; animal 5)	CHO (serum cholesterol) [3]	HDL-C (high density lipoprotein) [3]	LDL-C (low density lipoprotein) [3]	TG (triglyceride) [3]	Pathological grading: Steatotic hepatocytes ([2]; animal 2)	Pathological grading: Steatotic hepatocytes ([2]; animal 5)	Pathological grading: Infiltration of inflammatory cells ([2]; animal 4)
Cc1ccc(C)c(OCCCC(C)(C)C(=O)Nc2ccc(C(=O)CNC(=O)c3cccnc3)cc2)c1 [Compound 12]	994.50 ± 150.68	54.00 ± 5.72	137.75 ± 31.74	3.25 ± 2.11	0	0	0	0	0	0	4.03 ± 0.47	1.92 ± 0.11	2.16 ± 0.05	0.33 ± 0.05	–	–	–
Cc1ccc(C)c(OCCCC(C)(C)C(=O)NCC(=O)c2ccc(OC(=O)c3cccnc3)c(O)c2)c1 [Compound 22]	874.33 ± 251.66	58.00 ± 2.55	180.60 ± 27.19	2.97 ± 1.53	–	+ (25-45% of hepatocytes undergoing steatosis)	–	++ (45-65% of hepatocytes undergoing steatosis)	+ (25-45% of hepatocytes undergoing steatosis)	–	4.36 ± 1.08	1.47 ± 0.51	2.87 ± 1.25	0.57 ± 0.27	+ (25-45% of hepatocytes undergoing steatosis)	+ (25-45% of hepatocytes undergoing steatosis)	–
CC[C@H]1[C@@H](O)[C@@H]2[C@H](CC[C@]3(C)[C@@H]([C@H](C)CCC(=O)O)CC[C@@H]23)[C@@]2(C)CC[C@@H](O)C[C@@H]12 [Obeticholic Acid, Obeticholic acid, reference compound]	999.60 ± 354.29	136.40 ± 62.68	248.20 ± 156.61	4.06 ± 1.40	–	++ (45-65% of hepatocytes undergoing steatosis)	–	++ (45-65% of hepatocytes undergoing steatosis)	+++ (65-85% or more of hepatocytes undergoing steatosis)	–	4.74 ± 0.34	1.68 ± 0.22	2.85 ± 1.00	0.52 ± 0.06	++ (45-65% of hepatocytes undergoing steatosis)	++ (45-65% of hepatocytes undergoing steatosis)	–
Cc1ccc(C)c(OCCCC(C)(C)C(=O)NCC(=O)c2ccc(O)c(O)c2)c1 [Compound 21]	1074.00 ± 181.32	65.6 ± 27.20	184.40 ± 18.68	3.23 ± 1.35	–	+ (25-45% of hepatocytes undergoing steatosis)	–	+ (25-45% of hepatocytes undergoing steatosis)	+ (25-45% of hepatocytes undergoing steatosis)	–	4.37 ± 0.62	1.99 ± 0.44	2.09 ± 0.68	0.80 ± 0.13	0	+ (25-45% of hepatocytes undergoing steatosis)	0
CC(=O)c1ccc(NC(=O)C(C)(C)CCCOc2cc(C)ccc2C)cc1 [Compound 02]	1001.52 ± 273.34	62.52 ± 13.24	187.00 ± 36.44	1.98 ± 0.81	–	+ (25-45% of hepatocytes undergoing steatosis)	–	++ (45-65% of hepatocytes undergoing steatosis)	+ (25-45% of hepatocytes undergoing steatosis)	–	4.29 ± 0.65	1.74 ± 0.29	2.18 ± 0.71	0.51 ± 0.19	+ (25-45% of hepatocytes undergoing steatosis)	++ (45-65% of hepatocytes undergoing steatosis)	–
